From publication PMC5513743 (Journal of medical virology, 2017)
Like-named read-outs stand apart in the source and are kept apart here.

Experiments:
[1] = test system: HCV replicon cell line AVA5 (sub-genomic (CON1), genotype 1b); test: microbe, parasite or virus in culture; conditions: Hepatitis C virus, GETYPE1B, Ava5, read-out: EC50 (μM) (individual agent)
in vitro [2] = conditions: human
in vitro [3] = test: in vitro
[4] = test system: HCV replicon cell line AVA5 (sub-genomic (CON1), genotype 1b)
[5] = test system: fused THP-1/Huh7 derivative cells; conditions: capture fusion assay, data not shown
[6] = test system: HCV replicon H/FL-Neo (genotype 1a (H77), full length construct); conditions: HCV genotype 1A replicon
patient derived HCV = test: microbe, parasite or virus in culture; assay type: cell-based, hepatitis C virus; conditions: for IC50: Hepatitis C virus, in Homo sapiens
HCV = conditions: SAD and MAD seven-day Phase I study, chronic HCV patients; ref Thompson AJ, 2015; cited from earlier work
replicon cell line AVA5 = conditions: Table 2; SB 9200 monotherapy

SMILES: NC(=O)c1ncn([C@@H]2O[C@H](CO)[C@@H](O)[C@H]2O)n1 [Ribavirin]
- EC50 [1]: > 30 µM

SMILES: CO[C@@H]1[C@H](OP(=O)(OC[C@H]2O[C@@H](n3cnc4c(N)ncnc43)C[C@@H]2O)SCOC(=O)OC(C)C)[C@@H](CO)O[C@H]1n1ccc(=O)[nH]c1=O (stereo partly shown) [SB 9200]
- CC50 (in vitro [2]): > 100000 nM
- CC50 (in vitro [3]): > 100000 nM
- S.I. (CC50/EC50) ([4]; HCV genotype 1B replicon): >100
- S.I. (CC50/EC50) ([4]; Table 2, SB 9200 monotherapy): >100
- Cell viability [5]: not affected
- S.I. (CC50/EC50) [6]: > 45
- inhibition of HCV replication (patient derived HCV; Genotypes 1,2,3,4, and 6 patient derived HCV): inhibited replication of all the genotypes tested in a dose-dependent manner
- IC50 (patient derived HCV; G1 strains, patient derived HCV): 220 ± 76 nM
- IC50 (patient derived HCV; G3 isolates, patient derived HCV): 35 ± 13 nM
- difference in activity (IC50) against pre- and post treatment quasi-species (patient derived HCV; g3 patient who failed SOF/DAC/RBV, NS5A RAS S62L and Y93H enriched): No significant difference
- antiviral activity (fold change in HCV RNA from non-treated controls) (patient derived HCV; single dose 0.1μM, G3 SVR and NR samples after DAA treatment): demonstrated antiviral activity
- safety and tolerability (HCV): safe, well tolerated
- CC50 (replicon cell line AVA5): > 100000 nM

SMILES: C/C=C/C[C@@H](C)[C@@H](O)[C@H]1C(=O)N[C@@H](CC)C(=O)N(C)[C@H](C)C(=O)N(CC)[C@@H](C(C)C)C(=O)N[C@@H](C(C)C)C(=O)N(C)[C@@H](CC(C)C)C(=O)N[C@@H](C)C(=O)N[C@H](C)C(=O)N(C)[C@@H](CC(C)C)C(=O)N(C)[C@@H](CC(C)C)C(=O)N(C)[C@@H](C(C)C)C(=O)N1C [alisporivir, reference compound]
- IC50 (patient derived HCV; G1 patient derived samples): 99 nM
- IC50 (patient derived HCV; G3 patient derived samples): 36 nM
